Assay results taken from patent US7223773B2, “4-oxoquinolizine antibacterial agent having 2-pyridone skeleton as partial structure” (Salo Pharmaceutical Co., Ltd., priority 2001, dated 2007).
In brackets after ≈: the same amount, converted by molar mass.

Assays:
Type in all cases: cell-based
[1] = tested on: Bacillus subtilis JCM 2499; assay: in vitro antibacterial activity, agar plate dilution method (MIC); details: JCM2499, read-out: Antimicrobial spectrum MIC
Method: (§1) The in vitro antibacterial activities of the compounds provided by the present invention were tested by a standard method of Chemotherapy Society of Japan, i.e. an agar plate dilution method disclosed in CHEMOTHERAPY Vol. 29, pages 76–79, 1981, and the activities of them on anaerobic bacteria were tested by a method disclosed in CHEMOTHERAPY Vol. 27, 559–590, 1979. The results were shown in terms of the minimum inhibition concentration (MIC, μg/ml) for the growth of the bacteria.

[2] = tested on: Branhamella catarrhalis IID 5233; assay: as above; details: Moraxella catarrhalis, IID5233, read-out: Antimicrobial spectrum MIC
Method: as §1

[3] = tested on: Enterococcus faecalis CSJ 1212; assay: as above; details: CSJ1212, read-out: Antimicrobial spectrum MIC
Method: as §1

[4] = tested on: Enterococcus faecalis RIMD 3116001; assay: as above; details: RIMD3116001, read-out: Antimicrobial spectrum MIC
Method: as §1

[5] = tested on: Escherichia coli IFO 12734; assay: as above; details: IFO12734, read-out: Antimicrobial spectrum MIC
Method: as §1

[6] = tested on: Haemophilus influenzae IID 984; assay: as above; details: IID984, read-out: Antimicrobial spectrum MIC
Method: as §1

[7] = tested on: Klebsiella pneumoniae IID 865; assay: as above; details: IID865, read-out: Antimicrobial spectrum MIC
Method: as §1

[8] = tested on: Micrococcus luteus KI 3122; assay: as above; details: KI3122, read-out: Antimicrobial spectrum MIC
Method: as §1

[9] = tested on: Pseudomonas aeruginosa CSJ 1853; assay: as above; details: CSJ1853, read-out: Antimicrobial spectrum MIC
Method: as §1

[10] = tested on: Staphylococcus aureus Clin-211(MRSA); assay: as above; details: read-out: Antimicrobial spectrum MIC
Method: as §1

[11] = tested on: Staphylococcus aureus IFO 13276; assay: as above; details: IFO13276, read-out: Antimicrobial spectrum MIC
Method: as §1

[12] = tested on: Staphylococcus aureus IID 803(Smith); assay: as above; details: IID803, read-out: Antimicrobial spectrum MIC
Method: as §1

[13] = tested on: Staphylococcus aureus JCM 2874; assay: as above; details: JCM2874, read-out: Antimicrobial spectrum MIC
Method: as §1

[14] = tested on: Staphylococcus epidermidis IFO 12993; assay: as above; details: IFO12993, read-out: Antimicrobial spectrum MIC
Method: as §1

[15] = tested on: Streptococcus pneumoniae IID 553; assay: as above; details: IID553, read-out: Antimicrobial spectrum MIC
Method: as §1

[16] = tested on: Bacteroides fragilis GAI 0675; assay: in vitro antibacterial activity on anaerobic bacteria (MIC); details: GAI0675; Bacteroides fragilis GAI 0675, anaerobic; read-out: Antimicrobial spectrum MIC
Method: as §1

[17] = tested on: Bacteroides thetaiotaomicron ATCC 29741; assay: as above; details: ATCC29741; Bacteroides thetaiotaomicron ATCC 29741, anaerobic; read-out: Antimicrobial spectrum MIC
Method: as §1

[18] = tested on: Propionibacterium acnes JCM 6425; assay: as above; details: Cutibacterium acnes, JCM6425; Propionibacterium acnes JCM 6425, anaerobic; read-out: Antimicrobial spectrum MIC
Method: as §1

Structure (SMILES)	MIC [1]	MIC [2]	MIC [3]	MIC [4]	MIC [5]	MIC [6]	MIC [7]	MIC [8]	MIC [9]	MIC [10]	MIC [11]	MIC [12]	MIC [13]	MIC [14]	MIC [15]	MIC [16]	MIC [17]	MIC [18]
Cc1c(-c2ccc(CN)cc2)ccn2c(=O)c(C(=O)O)cc(C3CC3)c12 [Example 24, 8-(4-aminomethylphenyl)-1-cyclopropyl-9-methyl-4-oxo-4H-quinolizine-3-carboxylic acid]	0.016 µg/mL (≈ 0.0459 µM)	0.063 µg/mL (≈ 0.181 µM)	0.25 µg/mL (≈ 0.718 µM)	0.25 µg/mL (≈ 0.718 µM)	0.063 µg/mL (≈ 0.181 µM)	0.016 µg/mL (≈ 0.0459 µM)	0.008 µg/mL (≈ 0.023 µM)	0.5 µg/mL (≈ 1.44 µM)	0.5 µg/mL (≈ 1.44 µM)	0.5 µg/mL (≈ 1.44 µM)	0.031 µg/mL (≈ 0.089 µM)	0.031 µg/mL (≈ 0.089 µM)	0.031 µg/mL (≈ 0.089 µM)	0.063 µg/mL (≈ 0.181 µM)	0.125 µg/mL (≈ 0.359 µM)	0.25 µg/mL (≈ 0.718 µM)	0.5 µg/mL (≈ 1.44 µM)	0.125 µg/mL (≈ 0.359 µM)
Cc1c(-c2cccc(N)c2)ccn2c(=O)c(C(=O)O)cc(C3CC3)c12 [Example 26, 8-(3-aminophenyl)-1-cyclopropyl-9-methyl-4-oxo-4H-quinolizine-3-carboxylic acid]	≤ 0.004 µg/mL	0.016 µg/mL (≈ 0.0479 µM)	0.125 µg/mL (≈ 0.374 µM)	0.25 µg/mL (≈ 0.748 µM)	0.125 µg/mL (≈ 0.374 µM)	0.016 µg/mL (≈ 0.0479 µM)	0.008 µg/mL (≈ 0.0239 µM)	0.125 µg/mL (≈ 0.374 µM)	0.25 µg/mL (≈ 0.748 µM)	0.125 µg/mL (≈ 0.374 µM)	0.008 µg/mL (≈ 0.0239 µM)	0.008 µg/mL (≈ 0.0239 µM)	0.008 µg/mL (≈ 0.0239 µM)	0.016 µg/mL (≈ 0.0479 µM)	0.25 µg/mL (≈ 0.748 µM)	0.125 µg/mL (≈ 0.374 µM)	0.25 µg/mL (≈ 0.748 µM)	0.063 µg/mL (≈ 0.188 µM)
Cc1c(-c2ccc(N)cc2)ccn2c(=O)c(C(=O)O)cc(C3CC3)c12 [Example 27, 8-(4-Aminophenyl)-1-cyclopropyl-9-methyl-4-oxo-4H-quinolizine-3-carboxylic acid]	≤ 0.004 µg/mL	≤ 0.004 µg/mL	0.031 µg/mL (≈ 0.0927 µM)	0.063 µg/mL (≈ 0.188 µM)	0.063 µg/mL (≈ 0.188 µM)	0.008 µg/mL (≈ 0.0239 µM)	≤ 0.004 µg/mL	0.063 µg/mL (≈ 0.188 µM)	0.25 µg/mL (≈ 0.748 µM)	0.031 µg/mL (≈ 0.0927 µM)	≤ 0.004 µg/mL	≤ 0.004 µg/mL	≤ 0.004 µg/mL	0.008 µg/mL (≈ 0.0239 µM)	0.125 µg/mL (≈ 0.374 µM)	0.031 µg/mL (≈ 0.0927 µM)	0.125 µg/mL (≈ 0.374 µM)	0.031 µg/mL (≈ 0.0927 µM)
CC(=O)c1ccc(-c2ccn3c(=O)c(C(=O)O)cc(C4CC4)c3c2C)cc1 [Example 28, 8-(4-Acetylphenyl)-1-cyclopropyl-9-methyl-4-oxo-4H-quinolizine-3-carboxylic acid]	≤ 0.004 µg/mL	0.031 µg/mL (≈ 0.0858 µM)	0.125 µg/mL (≈ 0.346 µM)	0.25 µg/mL (≈ 0.692 µM)	0.25 µg/mL (≈ 0.692 µM)	0.25 µg/mL (≈ 0.692 µM)	0.031 µg/mL (≈ 0.0858 µM)	0.25 µg/mL (≈ 0.692 µM)	2 µg/mL (≈ 5.53 µM)	0.125 µg/mL (≈ 0.346 µM)	0.008 µg/mL (≈ 0.0221 µM)	0.008 µg/mL (≈ 0.0221 µM)	0.008 µg/mL (≈ 0.0221 µM)	0.031 µg/mL (≈ 0.0858 µM)	0.25 µg/mL (≈ 0.692 µM)	0.125 µg/mL (≈ 0.346 µM)	0.25 µg/mL (≈ 0.692 µM)	
Cc1ccc(-c2ccn3c(=O)c(C(=O)O)cc(C4CC4)c3c2C)cc1 [Example 31, 1-Cyclopropyl-9-methyl-4-oxo-8-p-tolyl-4H-quinolizine-3-carboxylic acid]	≤ 0.004 µg/mL	0.031 µg/mL (≈ 0.093 µM)	0.25 µg/mL (≈ 0.75 µM)	0.5 µg/mL (≈ 1.5 µM)	0.125 µg/mL (≈ 0.375 µM)	0.125 µg/mL (≈ 0.375 µM)	0.031 µg/mL (≈ 0.093 µM)	0.125 µg/mL (≈ 0.375 µM)	0.5 µg/mL (≈ 1.5 µM)	0.125 µg/mL (≈ 0.375 µM)	0.008 µg/mL (≈ 0.024 µM)	0.008 µg/mL (≈ 0.024 µM)	0.008 µg/mL (≈ 0.024 µM)	0.016 µg/mL (≈ 0.048 µM)	0.5 µg/mL (≈ 1.5 µM)	0.25 µg/mL (≈ 0.75 µM)	1 µg/mL (≈ 3 µM)	0.25 µg/mL (≈ 0.75 µM)
COc1ccc(-c2ccn3c(=O)c(C(=O)O)cc(C4CC4)c3c2C)cn1 [Example 32, 1-Cyclopropyl-8-(6-methoxypyridin-3-yl)-9-methyl-4-oxo-4H-quinolizine-3-carboxylic acid]	≤ 0.004 µg/mL	0.031 µg/mL (≈ 0.0885 µM)	0.125 µg/mL (≈ 0.357 µM)	0.25 µg/mL (≈ 0.714 µM)	0.25 µg/mL (≈ 0.714 µM)	0.063 µg/mL (≈ 0.18 µM)	0.016 µg/mL (≈ 0.0457 µM)	0.25 µg/mL (≈ 0.714 µM)	1 µg/mL (≈ 2.85 µM)	0.125 µg/mL (≈ 0.357 µM)	0.008 µg/mL (≈ 0.0228 µM)	0.008 µg/mL (≈ 0.0228 µM)	0.016 µg/mL (≈ 0.0457 µM)	0.016 µg/mL (≈ 0.0457 µM)	0.5 µg/mL (≈ 1.43 µM)	0.063 µg/mL (≈ 0.18 µM)	0.25 µg/mL (≈ 0.714 µM)	0.008 µg/mL (≈ 0.0228 µM)
